Results published in patent US8013008B2, “Cyclic amine compound” (Takeda Pharmaceutical Company Limited, priority 2006, dated 2011).

Experiments:
[1] = target: T1, wild-type androgen receptor (AR) (Homo sapiens, UniProt P10275); assay: AR binding inhibitory test (wild-type); conditions: 100 nM compound; 3 nM radiolabeled mibolerone; 4° C., 3 hr; dextran/charcoal B/F separation; read-out: Inhibitory rate (%) at 100 nM
T1 sequence (P10275 1-920): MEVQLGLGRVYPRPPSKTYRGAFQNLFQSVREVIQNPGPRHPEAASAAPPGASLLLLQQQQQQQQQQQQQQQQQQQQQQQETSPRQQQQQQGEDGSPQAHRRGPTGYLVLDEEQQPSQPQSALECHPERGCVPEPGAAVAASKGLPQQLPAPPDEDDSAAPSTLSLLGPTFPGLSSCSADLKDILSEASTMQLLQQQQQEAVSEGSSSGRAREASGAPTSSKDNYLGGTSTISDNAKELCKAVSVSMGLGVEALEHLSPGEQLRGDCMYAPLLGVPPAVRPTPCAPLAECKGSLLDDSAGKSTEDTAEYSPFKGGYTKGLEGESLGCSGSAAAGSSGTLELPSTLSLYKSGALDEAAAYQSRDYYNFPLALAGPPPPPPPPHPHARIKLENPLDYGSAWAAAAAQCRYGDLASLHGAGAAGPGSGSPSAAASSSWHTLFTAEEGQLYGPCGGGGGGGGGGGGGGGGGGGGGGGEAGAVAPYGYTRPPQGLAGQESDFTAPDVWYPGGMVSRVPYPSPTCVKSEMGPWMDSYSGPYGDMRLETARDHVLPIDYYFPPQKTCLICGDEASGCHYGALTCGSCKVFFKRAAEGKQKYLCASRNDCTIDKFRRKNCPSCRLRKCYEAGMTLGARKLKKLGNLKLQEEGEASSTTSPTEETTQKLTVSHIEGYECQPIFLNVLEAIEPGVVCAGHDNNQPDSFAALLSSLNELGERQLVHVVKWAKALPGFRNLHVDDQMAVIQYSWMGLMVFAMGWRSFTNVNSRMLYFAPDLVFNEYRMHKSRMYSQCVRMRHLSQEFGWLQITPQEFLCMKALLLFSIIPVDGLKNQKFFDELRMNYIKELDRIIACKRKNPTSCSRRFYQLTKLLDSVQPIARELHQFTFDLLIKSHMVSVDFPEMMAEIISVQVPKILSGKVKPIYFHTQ
Description: To a solution containing a wild-type androgen receptor (AR) was added 3 nM radiolabeled mibolerone and 100 nM compound. After the solution was incubated at 4° C. for 3 hr, B (Bound)/F (Free) separation was performed by the dextran/charcoal method. The label count of B was measured, and the inhibitory rate of the compound was calculated.

AR = target: T2, AR (Homo sapiens, UniProt P10275); assay: Reporter assay system using Cos7 cell (AR gene + MMTV androgen responsive promoter-luciferase); type: cell-based; conditions: 100 nM compound, 24 hr; Cos-7 co-transfected with AR and MMTV-luciferase vectors; luciferase activity induced by 1 μM 5α-dihydrotestosterone taken as 100
T2 construct: expressed in transfected cells; host or cells: Cos-7
T2 sequence (P10275 1-920): T1 sequence (P10275 1-920)
Description: Cos-7(5,000,000 cells) were sown in a flask (150 cm^2), and cultured in a culture medium (DMEM medium containing 10% Dextran Charcoal (DCC)-Fetal Bovine Serum (FBS) and 2 mM glutamine) for 24 hr. A vector DNA containing AR gene, and a vector DNA prepared by binging luciferase gene at the downstream of an androgen responsive promoter derived from MMTV (Mouse Mammary Tumor Virus) were co-transfected by the liposome method. After culture for 4 hr, the cells were harvested, 10,000 cells were plated on a 96 well plate and cultured for 2 hr, after which 1 μM of 5α-dihydrotestosterone or 100 nM of a compound was added thereto. After culture for 24 hr, luciferase activity was determined. The induction rate by the compound was determined with the luciferase activity induced by addition of 1 μM of 5α-dihydrotestosterone as 100.

C[C@@H]1C[C@](C)(O)[C@H](C)N1c1ccc(C#N)c(Cl)c1 [Example 60, 2-chloro-4-[(2S,3S,5R)-3-hydroxy-2,3,5-trimethylpyrrolidin-1-yl]benzonitrile]
inhibition at 0.1 µM [1]: 92%
Induction rate (%) at 100 nM (AR): 37%

CC[C@]1(O)CCN(c2cc(F)c(C#N)c(F)c2)[C@H]1C [Example 7, 4-[(2S,3S)-3-ethyl-3-hydroxy-2-methylpyrrolidin-1-yl]-2,6-difluorobenzonitrile]
inhibition at 0.1 µM [1]: 98%
Induction rate (%) at 100 nM (AR): 107%

C[C@@H]1N(c2ccc(C#N)c(F)c2)CC[C@@]1(O)C1CC1 [Example 32, 4-[(2S,3R)-3-cyclopropyl-3-hydroxy-2-methylpyrrolidin-1-yl]-2-fluorobenzonitrile]
inhibition at 0.1 µM [1]: 98%
Induction rate (%) at 100 nM (AR): 77%

C[C@@H]1N(c2ccc(C#N)c(F)c2)CC[C@]1(C)O [Example 1, 2-fluoro-4-[(2S,3S)-3-hydroxy-2,3-dimethylpyrrolidin-1-yl]benzonitrile]
inhibition at 0.1 µM [1]: 95%
Induction rate (%) at 100 nM (AR): 65%

CC(C)[C@@H]1N(c2cc(F)c(C#N)c(F)c2)CC[C@]1(C)O [Example 20, 2,6-difluoro-4-[(2S,3S)-3-hydroxy-2-isopropyl-3-methylpyrrolidin-1-yl]benzonitrile]
inhibition at 0.1 µM [1]: 98%
Induction rate (%) at 100 nM (AR): 59%

C[C@@H]1N(c2ccc(C#N)c(Cl)c2)CC[C@@]1(O)C(F)(F)F [Example 18, 2-chloro-4-[(2S,3S)-3-hydroxy-2-methyl-3-(trifluoromethyl)pyrrolidin-1-yl]benzonitrile]
inhibition at 0.1 µM [1]: 100%
Induction rate (%) at 100 nM (AR): 89%
